Reference: US11219216B2, “Method of improving tolerance of plants to herbicides using seed insecticide treatments” (priority 2015, dated 2022)
Where two headings read alike, the source gives them in different places.

Assays:
[1] = test system: Ozark conventional soybean; conditions: for Soybean Injury (%) 10 DAT / Soybean Injury (%) 35 DAT: fungicide-only seed
Description: A field experiment was conducted in the summer of 2014 near Newport, Ark. to evaluate the effect of a soybean insecticide seed treatment, Cruiser Maxx, on herbicide injury to convention soybean. The conventional soybean variety Ozark was planted on 7-17-14 in plots measuring 7.5×20 feet in size. In each plot, half the drill rows were treated with Cruiser Maxx at 7 oz/cwt, and the other half were treated with only the fungicide portion of that treatment. Seeding rate was 125,000 seeds per acre. Seed were planted to a depth of 0.5 inches. Soil temperature at the time of planting and application of the PRE treatments was 62 degrees F.
Post emerge treatments included Roundup PowerMax (2 and 4 oz/A), Liberty (2 and 4 oz/A), dicamba (0.25 and 0.5 oz/A), 2,4-D (0.75 and 1.5 oz/A) and Permit at 0.5 and 1.0 oz/A applied at the third trifoliate stage. Herbicides were applied with a 4 nozzle boom calibrated to deliver 15 GPA using CO2 as a propellant.
Plots were visually rated for herbicide injury at 10 days after emergence and at 35 days after application of the POST treatments. The rating scale was 0 to 100 where 0=no injury and 100=complete death or desiccation of the plant. Means were separated using Fisher's protected LSD (0.05).

cotton = conditions: insecticide applied in-furrow; York et al. (1991); cited from earlier work
[2] = test system: conventional rice (Roy J); format: in vivo
Description: This experiment was conducted at a farm located just north of Lonoke, Ark. in the summers of 2013 and 2014. The soil texture is a silt loam with a pH of 6.3. Conventional rice (Roy J) was planted on Apr. 30, 2013 and May 20, 2014 with a Hege cone drill calibrated to deliver a seeding rate of 90 pounds (lbs)/Acre on 7.5-inch rows. Plot size was 5×25 feet. The study was conducted with a randomized complete block design having 4 replications.
Treatments consisted of seed treatment and herbicide combinations. […] The second seed treatment was considered the “nontreated seed” which actually received equivalent amounts of azoxystrobin, mefenoxam and fludioxonil as the treated seed but without the insecticide thiamethoxam.
The herbicide treatments were applied at the 2-4 If growth stage of rice with a CO2 backpack sprayer calibrated to deliver 10 gallons of spray solution per acre. Herbicide treatments included Roundup PowerMax (5.5 lb ai/gallon formulation) applied at 0, 1, 2, and 4.0 oz product/A and Newpath 2AS (2 lb ai/gallon formulation) applied at 0, 0.25, 0.5 and 1.0 oz product/A. The plot area was maintained weed free with conventional rice herbicides and the rice was grown according to University of Arkansas recommendations for soil fertility.
Data collected included: percent visual injury at 7, 21, and 42 days after treatment (DAT) on a scale of 0 to 100 with 0 being no injury and 100 being complete crop death; canopy heights at 68 DAT using a yard stick and 1 meter square piece of cardboard, percent rice heading at 107 DAT, percent moisture, and grain yield at harvest. Data were analyzed and LSD's generated at the p=0.05 level of significance using ARM 9.1.4.

[3] = POST at third trifoliate, averaged across two rates (Roundup PowerMax 2 and 4, dicamba 0.25 and 0.5, 2,4-D 0.75 and 1.5, Permit 0.5 and 1.0 oz/A), Treated soybean (Cruiser Maxx 7 oz/cwt)
[4] = POST at third trifoliate, averaged across two rates (Roundup PowerMax 2 and 4, dicamba 0.25 and 0.5, 2,4-D 0.75 and 1.5, Permit 0.5 and 1.0 oz/A)
[5] = PRE, (T) = Treated soybean (Cruiser Maxx 7 oz/cwt), Metribuzin 0.671 lb/A, Dual Magnum 2.0 pts/A, Zidua 3.5 oz/A, Valor 2.0 oz/A, mixes at same rates
[6] = PRE, Metribuzin 0.671 lb/A, Dual Magnum 2.0 pts/A, Zidua 3.5 oz/A, Valor 2.0 oz/A, mixes at same rates

| Structure (SMILES) | Soybean Injury (%) 10 DAT (T) [1, 3] | Soybean Injury (%) 35 DAT (T) [1, 3] | Soybean Injury (%) 10 DAT [1, 4] | Soybean Injury (%) 35 DAT [1, 4] | clomazone injury to cotton (cotton) | also measured |
| --- | --- | --- | --- | --- | --- | --- |
| O=C(O)COc1ccc(Cl)cc1Cl [2,4-D] | 15% | 5% | 15% | 5% | – | – |
| COc1c(Cl)ccc(Cl)c1C(=O)O [Dicamba, dicamba] | 60% | 30% | 60% | 30% | – | – |
| CSc1nnc(C(C)(C)C)c(=O)n1N [Metribuzin, metribuzin] | – | – | – | – | – | Soybean Injury (%) 10 DAT (T) [1, 5]: 0%; Soybean Injury (%) 35 DAT (T) [1, 5]: 0%; Soybean Injury (%) 10 DAT [1, 6]: 0%; Soybean Injury (%) 35 DAT [1, 6]: 0% |
| CCOP(=S)(OCC)SCCSCC [disulfoton] | – | – | – | – | greatly reduced | – |
| CCOP(=S)(OCC)SCSCC [phorate] | – | – | – | – | greatly reduced | – |
| CN1COCN(Cc2cnc(Cl)s2)/C1=N\[N+](=O)[O-] [thiamethoxam] | – | – | – | – | – | heading ([2]; 107 DAT, all plots that received the insecticide in the seed treatment): 95-100%; yield higher for treated seed plots versus untreated or fungicide only plots ([2]; 2013, Newpath at either 0.25 or 0.5 oz/A): 100 bu/A; yield improved by addition of a seed treatment that included the insecticide ([2]; 2013, Roundup 4.0 oz/A): over 60 bushels |
